These results are taken from patent US6680304B2, “Disaccharides with anti-arthrosic properties” (Bioiberica, S.A., priority 2000, dated 2004).

The subject of experiment [1] is human articular chondrocytes. Description: Overall DMOAD (cartilage structure modifying) effect on cultured chondrocytes. It counts as cell-based. As to conditions: effects comparable to those of CS and CPS. The method, then: (§1) Each of the compounds (Ib, IC) has been tested on human articular cartilage chondrocytes obtained from 2 different donors. The chondrocytes were cultured over 7 days in alginate gel and during this period they were exposed to the different drugs. The cells were then isolated from the gel and tested. The test protocol specified that the chondrocytes were exposed to IL-1 since it has been shown that particularly IL-1-treated chondrocytes, as opposed to non-treated chondrocytes, respond to polysulphated polysaccharides. As a positive control, chondroitin sulphate (CS) and chondroitin polysulphate (CPS) have been used.
(§2) The accumulation of aggrecan and of type II collagen in the cell-associated matrix (CAM) of the chondrocytes in culture was the primary variable to evaluate the DMOAD (Disease Modifying Osteoarthritic Drug) effects of the 2 compounds. The intracellular levels of IL-1α and β, MMP-13 were also studied.
(§3) All assays were made by flow cytometry. Specific Fluoresceine Isothiocyanate- (FITC-) or Phycoerythin (PE-) conjugated monoclonal antibodies (Mab) against the different proteins have been used. The results were expressed as Mean Fluorescence Intensity (MFI) of the chondrocyte population after staining with the respective Mab.

For a further experiment, the system named is type II collagen. The experiment in a line: Type II collagen accumulation in cell-associated matrix of IL-1-treated chondrocytes in alginate gel, flow cytometry. It is filed as cell-based, human. The note with it: for COLL (type II collagen): 7 days, average of three measures; for change in accumulation of type II collagen in the CAM: IL-1+ chondrocytes, treated compared to untreated. The method, then:
as §1, §2, §3
A general note: Flow cytometry measures light scatter and fluorescence of single cells or particles in a stream.

Another experiment has as its system IL-1β. The experiment in a line: Intracellular IL-1β level in IL-1-treated chondrocytes, flow cytometry. It is filed as cell-based, human. The note with it: for IL-1β: 7 days, average of three measures; for change in levels of IL-1β: IL-1+ chondrocytes, treated compared to untreated. As to the method: as §1, §2, §3
For another experiment, the system named is MMP-13. Description: Intracellular MMP-13 level in IL-1-treated chondrocytes, flow cytometry. It is filed as cell-based, human. As to conditions: for MMP-13: 7 days, average of three measures; for change in levels of MMP-13: IL-1+ chondrocytes, treated compared to untreated. As to the method: as §1, §2, §3
The test system of the next experiment is IL-1α. Description: Intracellular IL-1α level in IL-1-treated chondrocytes, flow cytometry. It counts as cell-based, human. As to conditions: for IL-1α / IL-Iα: 7 days, average of three measures; for change in levels of IL-1α: IL-1+ chondrocytes, treated compared to untreated. As to the method:
as §1, §2, §3

A further experiment relates to aggrecan. Description: Aggrecan accumulation in cell-associated matrix of IL-1-treated chondrocytes in alginate gel, flow cytometry. The note with it: for AGGR (aggrecan): 7 days, average of three measures; for change in accumulation of aggrecan in the CAM: IL-1+ chondrocytes, treated compared to untreated. It counts as cell-based, human. As to the method:
as §1, §2, §3

Where [2] appears, read: Table 1, donor F53 + IL-1β, 25 μ/ml.
Where [3] appears, read: Table 2, donor F53 + IL-1β, 25 μg/ml.
The mark [4] stands for this setting: Table 1, donor F53 + IL-1β, 10 μ/ml.
The mark [5] stands for this setting: Table 2, donor F53 + IL-1β, 10 μg/ml.

Where a name gives a salt, the structure may show the parent alone.

Consider `CO[C@H]1O[C@H](COS(=O)(=O)[O-])[C@@H](O)[C@H](O[C@@H]2O[C@H](C(=O)[O-])[C@@H](O)[C@H](O)[C@H]2O)[C@H]1NC(C)=O.[Na+].[Na+]` [Ib, Methyl 2-acetamido-2-deoxy-3-O-(β-D-glucopyranosyluronic acid)-6-O-sulfo-α-D-glucopyranoside, disodium salt], for which the “overall conclusion on effect on cartilage” value in experiment [1] was “cartilage structure modifying effects”. Besides, the “COLL (type II collagen)” value with type II collagen (setting [2]) is 1.00 MFI; in the experiment on type II collagen (donor F16 + IL-1β, 25 μ/ml), 2.92 MFI. In addition, the IL-1β with IL-1β (setting [2]) is reported as 2.92 MFI; in the experiment with IL-1β (donor F16 + IL-1β, 25 μ/ml), 1.03 MFI. The MMP-13 is listed as 17.67 MFI in the experiment with MMP-13 (setting [2]) and 22.49 MFI with MMP-13 (donor F16 + IL-1β, 25 μ/ml). Moreover, the IL-1α amounted to 44.24 MFI in the experiment on IL-1α (setting [2]) and 19.83 MFI in the experiment with IL-1α (donor F16 + IL-1β, 25 μ/ml). For the same compound, the “AGGR (aggrecan)” value with aggrecan (setting [2]) is given as 14.41 MFI; in the experiment with aggrecan (donor F16 + IL-1β, 25 μ/ml) it was 48.77 MFI.

Take `CO[C@H]1O[C@H](COS(=O)(=O)O)[C@@H](OS(=O)(=O)O)[C@H](O[C@@H]2O[C@H](C(=O)O)[C@@H](O)[C@H](O)[C@H]2O)[C@H]1NC(C)=O` [Ic, Methyl 2-acetamido-2-deoxy-3-O-(β-D-glucopyranosyluronic acid)-4,6-di-O-sulfo-α-D-glucopyranoside, trisodium salt]: the “overall conclusion on effect on cartilage” value in experiment [1] was “cartilage structure modifying effects”. Besides, the “COLL (type II collagen)” value is given as 0.97 MFI in the experiment on type II collagen (setting [3]) and 2.45 MFI in the experiment on type II collagen (donor F73 + IL-1β, 25 μg/ml). The IL-1β in the experiment with IL-1β (setting [3]) is reported as 3.63 MFI; with IL-1β (donor F73 + IL-1β, 25 μg/ml) it was 0.45 MFI. The MMP-13 in the experiment on MMP-13 (setting [3]) was determined as 19.62 MFI; in the experiment on MMP-13 (donor F73 + IL-1β, 25 μg/ml), 18.92 MFI. The IL-Iα was 44.69 MFI in the experiment with IL-1α (setting [3]) and 14.92 MFI in the experiment with IL-1α (donor F73 + IL-1β, 25 μg/ml). Further, the “AGGR (aggrecan)” value turned out to be 18.42 MFI in the experiment with aggrecan (setting [3]) and 59.82 MFI in the experiment on aggrecan (donor F73 + IL-1β, 25 μg/ml).

Turning to chondroitin polysulphate [CPS], the “change in accumulation of type II collagen in the CAM” value with type II collagen is on record as “statistically significant increase”. Besides, the “COLL (type II collagen)” value in the experiment with type II collagen (setting [4]) is on record as 2.12 MFI; in the experiment on type II collagen (setting [5]) it was 2.12 MFI; in the experiment with type II collagen (donor F16 + IL-1β, 10 μ/ml), 2.31 MFI; with type II collagen (donor F73 + IL-1β, 10 μg/ml), 1.96 MFI. In addition, in the experiment on IL-1β, the “change in levels of IL-1β” value is listed as “statistically significant decrease”. Moreover, the IL-1β with IL-1β (setting [4]) stood at 2.68 MFI; with IL-1β (setting [5]), 2.68 MFI; with IL-1β (donor F16 + IL-1β, 10 μ/ml) it was 1.18 MFI; with IL-1β (donor F73 + IL-1β, 10 μg/ml), 0.45 MFI. For the same compound, in the experiment with MMP-13, the “change in levels of MMP-13” value was “statistically significant decrease”. The MMP-13 with MMP-13 (setting [4]) is on record as 11.82 MFI; in the experiment on MMP-13 (setting [5]), 11.82 MFI; in the experiment with MMP-13 (donor F16 + IL-1β, 10 μ/ml), 23.20 MFI; in the experiment with MMP-13 (donor F73 + IL-1β, 10 μg/ml) it was 22.11 MFI. For the same compound, the “change in levels of IL-1α” value with IL-1α was “statistically significant decrease”. The IL-1α with IL-1α (setting [4]) is listed as 43.84 MFI; in the experiment with IL-1α (donor F16 + IL-1β, 10 μ/ml), 16.94 MFI. Moreover, the IL-Iα was found to be 43.84 MFI with IL-1α (setting [5]) and 16.43 MFI in the experiment on IL-1α (donor F73 + IL-1β, 10 μg/ml). In addition, in the experiment on aggrecan, the “change in accumulation of aggrecan in the CAM” value is given as “statistically significant increase”. In addition, the “AGGR (aggrecan)” value was determined as 19.47 MFI in the experiment on aggrecan (setting [4]); 19.47 MFI with aggrecan (setting [5]); 46.41 MFI in the experiment on aggrecan (donor F16 + IL-1β, 10 μ/ml); 24.71 MFI with aggrecan (donor F73 + IL-1β, 10 μg/ml).

As for chondroitin sulphate [CS], the “change in accumulation of type II collagen in the CAM” value in the experiment on type II collagen is “statistically significant increase”. In addition, the “COLL (type II collagen)” value is listed as 1.23 MFI with type II collagen (setting [4]); 1.23 MFI with type II collagen (setting [5]); 2.97 MFI in the experiment on type II collagen (donor F16 + IL-1β, 10 μ/ml); 1.45 MFI in the experiment with type II collagen (donor F73 + IL-1β, 10 μg/ml). Besides, the “change in levels of IL-1β” value in the experiment with IL-1β is recorded as “statistically significant decrease”. The IL-1β was 3.06 MFI in the experiment with IL-1β (setting [4]); 3.06 MFI in the experiment on IL-1β (setting [5]); 1.17 MFI in the experiment with IL-1β (donor F16 + IL-1β, 10 μ/ml); 0.47 MFI in the experiment on IL-1β (donor F73 + IL-1β, 10 μg/ml). Besides, in the experiment on MMP-13, the “change in levels of MMP-13” value was “statistically significant decrease”. Also, the MMP-13 in the experiment on MMP-13 (setting [4]) stood at 14.70 MFI; in the experiment with MMP-13 (setting [5]), 14.70 MFI; in the experiment with MMP-13 (donor F16 + IL-1β, 10 μ/ml) it was 23.34 MFI; in the experiment on MMP-13 (donor F73 + IL-1β, 10 μg/ml), 21.12 MFI. In addition, the “change in levels of IL-1α” value with IL-1α is on record as “statistically significant decrease”. Further, the IL-1α is listed as 45.41 MFI in the experiment on IL-1α (setting [4]) and 17.09 MFI with IL-1α (donor F16 + IL-1β, 10 μ/ml). The IL-Iα with IL-1α (setting [5]) came out at 45.41 MFI; with IL-1α (donor F73 + IL-1β, 10 μg/ml) it was 17.49 MFI. Further, the “change in accumulation of aggrecan in the CAM” value in the experiment on aggrecan is listed as “statistically significant increase”. Besides, the “AGGR (aggrecan)” value was found to be 15.09 MFI in the experiment with aggrecan (setting [4]); 15.09 MFI in the experiment with aggrecan (setting [5]); 47.39 MFI in the experiment on aggrecan (donor F16 + IL-1β, 10 μ/ml); 28.72 MFI in the experiment with aggrecan (donor F73 + IL-1β, 10 μg/ml).
